Test results published in PubChem BioAssay AID977621 (Broad Institute, 2014).
Results filed as inconclusive are left out. Calls of active or inactive are those of the source.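 How the source made its calls: active means Wild-type ribosome reporter drop at least double the humanized mutant ribosome reporter drop, growth loss under a set limit; inconclusive means no clear call, values can overlap the other calls; inactive means the rest.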

Tested on: E. coli wild-type GFP strain growth, fluorescence, 24 h
Experiment: growth inhibition of wild-type GFP E. coli, dose response, H69 mutant RFP, cherry-pick (AID 977621);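 further: wild-type GFP and H69 mutant RFP strains grown together 50/50 in each well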
[1] = E. coli mixed culture, 24 h, measured here: total growth OD600, test 2

Row | Structure (SMILES) | AC50 | AC50 [1] [µM] | AC50 (measured here: total growth OD600, test 2) [µM]
1 | CSc1ccccc1C(=O)NCCc1ccc(S(=O)(=O)N2CCCCC2)cc1 | > 100 µM (inactive) |  | 
2 | NC(=O)c1ccsc1NC(=O)COC(=O)CSc1ccc(Cl)cc1 | > 100 µM (inactive) | > 100 | 
3 | O=C(CSCc1c(Cl)cccc1Cl)NCc1ccccn1 |  | > 100 | 
4 | C[C@@H]1NS(=O)(=O)c2c(F)cccc2O[C@@H]1c1ccccc1 | > 100 µM (inactive) |  | 
5 | O=S(=O)(c1ccccc1)N1CCN=C1SCc1cccc(Cl)c1 | > 100 µM (inactive) | 35.9 | 
6 | COc1cc(NC(=O)C(c2ccccc2)c2ccccc2)c(C(=O)O)cc1OC | > 100 µM (inactive) |  | 
7 | CCOC(=O)C(C)Sc1nc(N2CCOCC2)c2c(c1C#N)CC(C)(C)OC2 (stereo not given) |  | > 100 | 
8 | CCCC[n+]1ccn(-c2nc3ccccc3nc2[N-]S(=O)(=O)c2cccs2)c1 | > 100 µM (inactive) | > 100 | 
9 | CC(=O)N1c2c(cc(Br)cc2S(=O)(=O)N2CCCCC2)CC1C (stereo not given) | > 100 µM (inactive) |  | 
10 | Cc1nn2c(NCc3ccccn3)cc(C(C)C)nc2c1-c1ccccc1 | > 100 µM (inactive) |  | 
11 | COc1cc(SC)ccc1C(=O)N1CCN(c2ccccc2F)CC1 | > 100 µM (inactive) |  | 
12 | C[C@@H]1CCCCO[C@H](CN(C)C)[C@H](C)CN([C@H](C)CO)C(=O)c2cc(NC(=O)Nc3cccc4ccccc34)ccc2O1 |  | > 100 | 
13 | CS(=O)(=O)N(CC(=O)N1CCc2ccccc2C1)c1ccc(Br)cc1 | > 100 µM (inactive) | 33.1 | 
14 | CNC(=O)c1sc(-c2ccccn2)nc1C |  | > 100 | 
15 | C[C@@H]1CN([C@@H](C)CO)C(=O)c2cc(NC(=O)Nc3cccc4ccccc34)ccc2O[C@@H](C)CCCCO[C@@H]1CN(C)C |  | > 100 | 
16 | O=C(Cc1ccc(Br)cc1)Nc1cccc(-c2cn3c(n2)SCC3)c1 |  | > 100 | 
17 | Cc1cc(C(C)(C)C)oc1C(=O)N(CC(=O)NC1CCCC1)c1c(C)cccc1C | > 100 µM (inactive) | > 100 | 
18 | CC(=O)OC(COc1cccc(C)c1)Cn1cnc2ccccc21 (stereo not given) |  | 48.6 | 
19 | O=c1c2ccccc2nc(SCc2ccccc2)n1CC1CCCO1 (stereo not given) |  | 51.1 | 
20 | O=C1c2ccccc2C(c2nnnn2Cc2ccccc2)N1CCc1ccc(O)cc1 (stereo not given) | > 100 µM (inactive) |  | 
21 | CCN(CC)CCN(C(=O)c1ccc2c(c1)OCCO2)c1nc2cc(C)cc(C)c2s1 | > 100 µM (inactive) |  | 
22 | CC1=CC(C)(C)N(C(=O)CSc2nnc(C)s2)c2ccc(C)cc21 |  | > 100 | 
23 | O=C(NCc1ccco1)c1ccc2ccccc2n1 |  | > 100 | 

Row | Structure (SMILES) | AC50 | AC50 [1] [µM] | AC50 (measured here: total growth OD600, test 2) [µM]
24 | C[n+]1ccccc1/C=C/c1cc(Br)ccc1O | > 100 µM (inactive) |  | 
25 | COc1cccc(OC)c1OCCCOc1cccc2cccnc12 | > 100 µM (inactive) |  | 
26 | CCN(C(=O)COC(=O)c1cc(-c2cccs2)nc2ccccc12)C1CCS(=O)(=O)C1 (stereo not given) | > 100 µM (inactive) |  | 
27 | O=C(NCc1cccnc1)C1CCN(S(=O)(=O)c2cc([N+](=O)[O-])ccc2Cl)CC1 |  | > 100 | 
28 | COc1cc(C(F)(F)F)c(C(=O)N(C)Cc2ccc(Cl)c(Cl)c2)cn1 | > 100 µM (inactive) | 44.6 | 
29 | COc1ccc(C(=O)Cn2nnc(-c3ccccc3F)n2)cc1 | > 100 µM (inactive) | 41.2 | 
30 | COc1ccc(OC)c(NC(=O)COc2ccc(S(=O)(=O)NC(C)C)cc2)c1 |  | > 100 | 
31 | CCN(c1cccc2ccccc12)S(=O)(=O)c1ccc(Cl)nc1 | > 100 µM (inactive) |  | 
32 | CSc1nc2ccc(NS(=O)(=O)c3ccc([N+](=O)[O-])cc3)cc2s1 |  | < 0.6 | 
33 | O=C(NCc1cccnc1)c1ccc(COc2ccc3c(c2)CCC3)o1 | > 100 µM (inactive) |  | 
34 | Cc1ccc(C(=O)NCC(=O)OCC(=O)Nc2cccc(S(=O)(=O)N3CCCC3)c2)cc1C |  | > 100 | 
35 | O=C(COC(=O)c1ccc([N+](=O)[O-])o1)NC12CC3CC(CC(C3)C1)C2 | > 100 µM (inactive) | > 100 | 
36 | COc1ccc(OC)c(C(=O)COC(=O)c2ccc([N+](=O)[O-])o2)c1 | > 100 µM (inactive) | > 100 | 
37 | CCN(CC)C(=O)c1ccc(COc2ccccc2Cl)o1 |  | > 100 | 
38 | CC1Cc2cc(S(=O)(=O)N3CCN(c4cccc(Cl)c4)CC3)ccc2N1C(=O)C1CC1 (stereo not given) |  | > 100 | 
39 | N#Cc1ccsc1NC(=O)CSc1nnnn1-c1ccc(O)cc1 | > 100 µM (inactive) |  | 
40 | COc1ccc(OC)c(S(=O)(=O)Nc2cccc3ccc(O)cc23)c1 |  | > 100 | 
41 | CCc1ccc(C(=O)Nc2cccnc2Oc2ccc(Cl)cc2)cc1 |  | > 100 | 
42 | Cc1ccc(Oc2ccc(S(=O)(=O)N3CCOCC3)cc2C(N)=O)cc1C | > 100 µM (inactive) |  | 
43 | Cc1ccc(CSCC(=O)N(C)CC(=O)Nc2ccccc2Cl)cc1 | > 100 µM (inactive) |  | 
44 | CCn1ncc(Br)c1C(=O)Nc1ccc2c(c1)OCCO2 | > 100 µM (inactive) |  | 
45 | CCCCSc1nc(N)c(C#N)c(-c2cccs2)c1C#N | > 100 µM (inactive) |  | 
46 | Nc1ccccc1Sc1ccc(C(F)(F)F)cc1[N+](=O)[O-] | > 100 µM (inactive) |  | 

Row | Structure (SMILES) | AC50 | AC50 [1] [µM] | AC50 (measured here: total growth OD600, test 2) [µM]
47 | CCCC#C/C(CCC)=C1\c2ccccc2C(=O)N1c1ccccc1 |  | > 100 | 
48 | O=C(c1cc(C(=O)N2CCOCC2)c2nc3ccccc3n2c1)c1cc(Cl)cc(Cl)c1O | > 100 µM (inactive) | > 100 | 
49 | CCc1nnc(NS(=O)(=O)c2ccc(NC(=O)c3cc(Cl)ccc3[N+](=O)[O-])cc2)s1 |  | 51.9 | 
50 | COc1cc(C(=O)Nc2nnc(S(=O)(=O)N3CCCCCC3)s2)cc(OC)c1OC | > 100 µM (inactive) | 36.3 | 
51 | COc1ccc(C(=O)C2CCCN(C(=O)c3noc4c3CCCC4)C2)cc1F (stereo not given) | > 100 µM (inactive) |  | 
52 | O=C(Cc1cccc(NC(=O)C2CCN(C(=O)C3CCCCC3)CC2)c1)Nc1cccc(C(=O)N2CCCC2)c1 |  | > 100 | 
53 | CCOC(=O)c1cc(-c2ccc(OC)cc2)n[nH]1 |  | > 100 | 
54 | COc1cc2[nH]c(=S)nc(NCCc3ccc(C)cc3)c2cc1OC | > 100 µM (inactive) |  | 
55 | O=C(CSc1n[nH]c(=O)n1C1CC1)Nc1ccc(Cl)c(Cl)c1 | > 100 µM (inactive) |  | 
56 | CCOc1ccccc1C(=O)OCC(=O)NCCc1ccc(OC)cc1 | > 100 µM (inactive) |  | 
57 | C[C@H](CO)N1C[C@H](C)[C@H](CN(C)C(=O)Nc2ccc3c(c2)OCO3)Oc2c(NC(=O)Nc3ccccc3)cccc2C1=O |  | 48.4 | 
58 | Cc1cc(C(=O)COC(=O)c2ccc(Br)o2)c(C)n1C | > 100 µM (inactive) | 48.4 | 
59 | OC[C@H]1[C@H](c2ccc(-c3ccc(F)cc3)cc2)[C@@H]2CN(Cc3ccncc3)CCCCN12 | > 100 µM (inactive) |  | 
60 | N#Cc1nc(-c2ccco2)oc1NCc1ccccc1Cl |  | 49.6 | 
61 | O=C(Cn1c2[n+](c3ccc(C(F)(F)F)cc31)CCCCC2)c1ccc2c(c1)OCCO2 | > 100 µM (inactive) |  | 
62 | O=C(CC(c1ccccc1)c1cc(Br)ccc1O)N1CCCC1 (stereo not given) | > 100 µM (inactive) | 36.4 | 
63 | Cc1cc(C(=O)Nc2cccc3c2O[C@H](CN(C)S(=O)(=O)c2ccc(Cl)cc2)[C@H](C)CN([C@H](C)CO)C3=O)n(C)n1 | > 100 µM (inactive) |  | 
64 | Cc1nc2ncnn2c(N2CCC(C(=O)NC3CCCC3)CC2)c1Cc1ccccc1 |  | > 100 | 
65 | O=C(Cc1cccnc1)N1CC(=O)N2[C@H](C1)[C@@H](c1ccc(C3=CCCCC3)cc1)[C@@H]2CO | > 100 µM (inactive) | > 100 | 
66 | CCOC(=O)c1nc(C)sc1-c1ccnn1S(=O)(=O)c1ccc(C)cc1 | > 100 µM (inactive) |  | 
67 | C[C@@H]1CN([C@@H](C)CO)C(=O)CCCn2nncc2CO[C@H]1CN(C)C(=O)Nc1ccc(C(F)(F)F)cc1 | > 100 µM (inactive) |  | 
68 | CCOc1ccccc1/C=C/c1cc(C(=O)O)c2ccccc2n1 |  | 35.3 | 
69 | Cc1ccccc1-c1cc(C(=O)NCc2cccs2)n(CC2CC(c3cccnc3)=NO2)n1 (stereo not given) | > 100 µM (inactive) | > 100 | 

Row | Structure (SMILES) | AC50 | AC50 [1] [µM] | AC50 (measured here: total growth OD600, test 2) [µM]
70 | Cc1ccc(NC(=O)c2c(C)noc2-c2snnc2C)cc1 | > 100 µM (inactive) |  | 
71 | C=C1SC(Nc2c(C)cc(C)cc2C)=NC12CCCCC2 | > 100 µM (inactive) | 31.9 | 
72 | O=C(CCC(=O)N1CCN(c2ccc(F)cc2)CC1)N1CCN(c2ccc(F)cc2)CC1 | > 100 µM (inactive) | > 100 | 
73 | COc1ccc(-c2cn3c(C)c(C(=O)Nc4cccc(C)n4)sc3n2)cc1 | > 100 µM (inactive) |  | 
74 | O=C(CN1CCN(S(=O)(=O)c2ccc(Cl)cc2)CC1)Nc1ccc2c(c1)CCC2 |  | > 100 | 
75 | NS(=O)(=O)c1cc(C(=O)OCC(=O)Nc2ccccc2[N+](=O)[O-])ccc1Cl | > 100 µM (inactive) | > 100 | 
76 | O=S(=O)(c1ccccc1)N1CC[C@@H]2[C@H](CO)Nc3ccc(Br)cc3[C@@H]21 |  | 43.4 | 
77 | O=C(N[C@@H](Cc1ccccc1)C(=O)OCc1ccccc1)c1nc[nH]c1C(=O)NC1CCNCC1 | > 100 µM (inactive) |  | 
78 | CC(=O)c1c(C)[nH]c(C(=O)Nc2nc(C)cs2)c1C |  | > 100 | 
79 | O=c1[nH]c(C2CCN(S(=O)(=O)c3ccc4c(c3)OCCO4)CC2)nc2c1nnn2Cc1ccccc1F | > 100 µM (inactive) |  | 
80 | CCN(c1ccccc1)S(=O)(=O)c1ccc(Cl)c(NC(=O)CSc2n[nH]c(N)n2)c1 | > 100 µM (inactive) |  | 
81 | O=[N+]([O-])c1ccc(N2CCOCC2)c2c1no[n+]2[O-] | > 100 µM (inactive) |  | 
82 | CC1(C(=O)NS(=O)(=O)c2cccc(C#N)c2)CCN1C(=O)C1(c2ccc(Cl)cc2)CCC1 (stereo not given) | > 100 µM (inactive) | > 100 | 
83 | CCN(CC(=O)Nc1cccc(S(=O)(=O)N2CCCC2)c1)CC(=O)Nc1ccccc1OC |  | > 100 | 
84 | Cc1ccc2c(c1C)OC(=O)CC2c1ccccc1 (stereo not given) | > 100 µM (inactive) |  | 
85 | Cc1c(C(=O)N(Cc2ccc(F)cc2)C2CCS(=O)(=O)C2)oc2ccccc12 (stereo not given) | > 100 µM (inactive) |  | 
86 | CCOc1cccc(-c2cc(-c3n[nH]c(=S)n3CC)c3ccccc3n2)c1 |  | 38.3 | 
87 | O=C1OC[C@@H]2CCCN2C(=O)[C@@H](CC(=O)N(CCO)Cc2ccccc2)C/C=C\C[C@H]1Cc1ccc(F)cc1 |  | > 100 | 
88 | O=C(Nc1ccccc1)N1CCCCN2[C@@H](CO)[C@H](c3ccc(Br)cc3)[C@@H]2C1 | > 100 µM (inactive) |  | 
89 | CC(NC(=O)c1ccncc1)c1ccc(Cl)cc1Cl (stereo not given) |  | > 100 | 
90 | CN(C)C(CNS(=O)(=O)c1cc([N+](=O)[O-])ccc1Cl)c1ccco1 (stereo not given) | > 100 µM (inactive) |  | 
91 | O=C1CC(=O)N(Cc2ccccc2)C(=O)N1CCCCCCN1C(=O)CC(=O)N(Cc2ccccc2)C1=O |  |  | > 100
